Data published in the NIST ThermoML archive (doi:10.1016/j.jct.2012.10.012).
Values joined by “and” are separate entries in the source; they are usually repeats but may differ in a detail not shown here. Equal entries are not always repeated. ± gives the expanded uncertainty stated by the source.

Details: Crystal, Calculated from knudsen effusion weight loss

Structure (SMILES): O=C1CNC(=O)CN1 [2,5-diketopiperazine]
- vapor or sublimation pressure (419.16 K): 0.000101 ± 5e-06 kPa and 9.91e-05 ± 5e-06 kPa and 9.65e-05 ± 4.8e-06 kPa
- vapor or sublimation pressure (421.11 K): 0.000118 ± 6e-06 kPa and 0.000119 ± 6e-06 kPa and 0.000114 ± 6e-06 kPa
- vapor or sublimation pressure (423.15 K): 0.00014 ± 7e-06 kPa and 0.000137 ± 7e-06 kPa and 0.000141 ± 7e-06 kPa
- vapor or sublimation pressure (425.16 K): 0.000168 ± 8e-06 kPa and 0.000156 ± 8e-06 kPa and 0.000162 ± 8e-06 kPa
- vapor or sublimation pressure (427.1 K): 0.000196 ± 1e-05 kPa and 0.000188 ± 9e-06 kPa and 0.000195 ± 1e-05 kPa
- vapor or sublimation pressure (429.14 K): 0.000232 ± 1.2e-05 kPa and 0.000226 ± 1.1e-05 kPa and 0.000236 ± 1.2e-05 kPa
- vapor or sublimation pressure (431.17 K): 0.00029 ± 1.5e-05 kPa and 0.000257 ± 1.3e-05 kPa and 0.000273 ± 1.4e-05 kPa
- vapor or sublimation pressure (433.11 K): 0.00033 ± 1.7e-05 kPa and 0.00032 ± 1.6e-05 kPa and 0.000347 ± 1.7e-05 kPa
- vapor or sublimation pressure (435.15 K): 0.000382 ± 1.9e-05 kPa and 0.00038 ± 1.9e-05 kPa and 0.00039 ± 2e-05 kPa
- vapor or sublimation pressure (437.19 K): 0.00047 ± 2.4e-05 kPa and 0.000459 ± 2.3e-05 kPa
- vapor or sublimation pressure (439.11 K): 0.000548 ± 2.7e-05 kPa and 0.000519 ± 2.6e-05 kPa and 0.00052 ± 2.6e-05 kPa
- vapor or sublimation pressure (441.16 K): 0.000646 ± 3.2e-05 kPa and 0.000627 ± 3.1e-05 kPa and 0.000626 ± 3.1e-05 kPa

Structure (SMILES): CC1NC(=O)C(C)NC1=O (centres undefined) [3,6-dimethyl-2,5-piperazinedione]
- vapor or sublimation pressure (388.13 K): 0.000116 ± 6e-06 kPa and 0.000126 ± 6e-06 kPa
- vapor or sublimation pressure (390.16 K): 0.000142 ± 7e-06 kPa and 0.000149 ± 7e-06 kPa and 0.00014 ± 7e-06 kPa
- vapor or sublimation pressure (392.15 K): 0.000171 ± 9e-06 kPa and 0.000179 ± 9e-06 kPa
- vapor or sublimation pressure (394.13 K): 0.000212 ± 1.1e-05 kPa and 0.000216 ± 1.1e-05 kPa
- vapor or sublimation pressure (396.14 K): 0.00026 ± 1.3e-05 kPa and 0.000247 ± 1.2e-05 kPa and 0.000267 ± 1.3e-05 kPa
- vapor or sublimation pressure (398.15 K): 0.000309 ± 1.5e-05 kPa and 0.000298 ± 1.5e-05 kPa and 0.000325 ± 1.6e-05 kPa
- vapor or sublimation pressure (400.13 K): 0.000387 ± 1.9e-05 kPa and 0.000371 ± 1.9e-05 kPa and 0.000388 ± 1.9e-05 kPa
- vapor or sublimation pressure (402.13 K): 0.000454 ± 2.3e-05 kPa and 0.000436 ± 2.2e-05 kPa and 0.000463 ± 2.3e-05 kPa
- vapor or sublimation pressure (404.15 K): 0.000543 ± 2.7e-05 kPa and 0.000563 ± 2.8e-05 kPa
- vapor or sublimation pressure (406.14 K): 0.000696 ± 3.5e-05 kPa and 0.000677 ± 3.4e-05 kPa and 0.000693 ± 3.5e-05 kPa
- vapor or sublimation pressure (408.14 K): 0.000821 ± 4.1e-05 kPa and 0.000818 ± 4.1e-05 kPa and 0.000785 ± 3.9e-05 kPa
- vapor or sublimation pressure (410.15 K): 0.000977 ± 4.9e-05 kPa and 0.000955 ± 4.8e-05 kPa and 0.000927 ± 4.6e-05 kPa
